# Measured values taken from patent US12129237B2, “Substituted diaminocarboxamide and diaminocarbonitrile pyrimidines, compositions thereof, and methods of treatment therewith” (SIGNAL PHARMACEUTICALS, LLC, priority 2011, dated 2024).
# Target: T1, JNK1 (Homo sapiens, UniProt P45983)
# T1 construct: purchased Carna Biosciences
# Assay: JNK1 biochemical assays (one or more of: time resolved fluorescence, Z'-LYTE Cascade, radioactive)
# Conditions: Table 3; JNK1 IC50 activity level; read-out: Act. Level
# T1 sequence (P45983 whole entry): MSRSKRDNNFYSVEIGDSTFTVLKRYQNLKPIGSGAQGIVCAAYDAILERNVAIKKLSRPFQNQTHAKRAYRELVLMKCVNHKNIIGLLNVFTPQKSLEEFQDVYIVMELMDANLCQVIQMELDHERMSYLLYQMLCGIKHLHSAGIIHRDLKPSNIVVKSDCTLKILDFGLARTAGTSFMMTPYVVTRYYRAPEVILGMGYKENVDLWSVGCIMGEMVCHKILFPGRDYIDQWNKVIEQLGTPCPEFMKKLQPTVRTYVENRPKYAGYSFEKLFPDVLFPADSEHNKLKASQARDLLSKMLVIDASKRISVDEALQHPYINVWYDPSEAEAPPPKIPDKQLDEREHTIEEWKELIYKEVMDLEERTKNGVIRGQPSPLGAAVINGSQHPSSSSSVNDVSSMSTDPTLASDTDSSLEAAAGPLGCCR
row,Compound,IC50 [nM]
1,"CCO[C@H]1CC[C@H](Nc2ncc(C#N)c(NC3CCOCC3)n2)CC1 [Example C-21, 2-((1r,4r)-4-ethoxycyclohexylamino)-4-(tetrahydro-2H-pyran-4-ylamino)pyrimidine-5-carbonitrile]",1000 to 10000
2,"CCO[C@H]1CC[C@H](Nc2ncc(C#N)c(N[C@H]3CC[C@@H](O)CC3)n2)CC1 [Example C-22, 2-((1r,4r)-4-ethoxycyclohexylamino)-4-((1s,4s)-4-hydroxycyclohexylamino) pyrimidine-5-carbonitrile]",200 to 800
3,"CCO[C@H]1CC[C@H](Nc2ncc(C#N)c(NC3CCCC3)n2)CC1 [Example C-23, 4-(cyclopentylamino)-2-((1r,4r)-4-ethoxycyclohexylamino) pyrimidine-5-carbonitrile]",200 to 800
4,"CCO[C@H]1CC[C@H](Nc2ncc(C#N)c(N[C@H]3CCCOC3)n2)CC1 [Example C-24, 2-((1r,4S)-4-ethoxycyclohexylamino)-4-((S)-tetrahydro-2H-pyran-3-ylamino)pyrimidine-5-carbonitrile]",1000 to 10000
5,"CCO[C@H]1CC[C@H](Nc2ncc(C#N)c(N[C@H]3CC[C@H](O)CC3)n2)CC1 [Example C-25, 2-((1r,4r)-4-ethoxycyclohexylamino)-4-((1r,4r)-4-hydroxycyclohexylamino) pyrimidine-5-carbonitrile]",800 to 1000
6,"CCO[C@H]1CC[C@H](Nc2ncc(C#N)c(N[C@@H]3CCCOC3)n2)CC1 [Example C-26, 2-((1r,4R)-4-ethoxycyclohexylamino)-4-((R)-tetrahydro-2H-pyran-3-ylamino)pyrimidine-5-carbonitrile]",200 to 800
7,"CO[C@H]1CC[C@H](Nc2ncc(C#N)c(N[C@@H]3CCCC[C@H](O)C3)n2)CC1 [Example C-27, 4-((1R,3S)-3-hydroxycycloheptylamino)-2-((1r,4R)-4-methoxycyclohexylamino) pyrimidine-5-carbonitrile]",< 200
8,"CCO[C@H]1CC[C@H](Nc2ncc(C#N)c(N[C@@H]3CCC[C@](C)(O)C3)n2)CC1 [Example C-28, 2-((1r,4R)-4-ethoxycyclohexylamino)-4-((1R,3S)-3-hydroxy-3-methylcyclohexylamino) pyrimidine-5-carbonitrile]",< 200
9,"CCO[C@H]1CC[C@H](Nc2ncc(C#N)c(N[C@@H]3CCCC[C@H](O)C3)n2)CC1 [Example C-29, 2-((1r,4R)-4-ethoxycyclohexylamino)-4-((1R,3S)-3-hydroxycycloheptylamino) pyrimidine-5-carbonitrile]",< 200
10,"N#Cc1cnc(N[C@H]2CC[C@H](OCC(F)(F)F)CC2)nc1N[C@@H]1CCCC[C@H](O)C1 [Example C-30, 4-((1R,3S)-3-hydroxycycloheptylamino)-2-((1r,4R)-4-(2,2,2-trifluoroethoxy)cyclohexylamino) pyrimidine-5-carbonitril]",< 200
11,"N#Cc1cnc(N[C@H]2CC[C@H](O)CC2)nc1N[C@@H]1CCCC[C@@H]1O [Example C-31, 4-((1R,2S)-2-hydroxycyclohexylamino)-2-((1r,4R)-4-hydroxycyclohexylamino) pyrimidine-5-carbonitrile]",200 to 800
12,"N#Cc1cnc(N[C@H]2CC[C@H](OC(F)F)CC2)nc1N[C@@H]1CCCC[C@H](O)C1 [Example C-32, 2-((1r,4R)-4-(difluoromethoxy)cyclohexylamino)-4-((1R,3S)-3-hydroxycycloheptylamino) pyrimidine-5-carbonitrile]",< 200
13,"CC[C@]1(O)CCC[C@@H](Nc2nc(N[C@H]3CC[C@H](OC)CC3)ncc2C#N)C1 [Example C-33, 4-((1R,3S)-3-ethyl-3-hydroxycyclohexylamino)-2-((1r,4R)-4-methoxycyclohexylamino) pyrimidine-5-carbonitrile]",< 200
14,"CN(C)C(=O)C(C)(C)C1CCC(Nc2ncc(C#N)c(N[C@@H]3CCC[C@H](O)C3)n2)CC1 (stereo partly drawn) [Example C-34, 2-(4-(5-cyano-4-((1R,3S)-3-hydroxycyclohexylamino)pyrimidin-2-ylamino)cyclohexyl)-N,N,2-trimethylpropanamide]",< 200
15,"CN(C)C(=O)C(C)(C)C1CCC(Nc2ncc(C#N)c(N[C@@H]3CCC[C@H](O)C3)n2)CC1 (stereo partly drawn) [Example C-35, 2-(4-(5-cyano-4-((1R,3S)-3-hydroxycyclohexylamino)pyrimidin-2-ylamino)cyclohexyl)-N,N,2-trimethylpropanamide]",200 to 800
16,N#Cc1cnc(N[C@H]2CC[C@H](O)CC2)nc1N[C@@H]1CCCC[C@H](O)C1 [Example C-36],< 200
17,"CCO[C@H]1CC[C@H](Nc2ncc(C#N)c(N[C@H]3CCOC3)n2)CC1 [Example C-37, 2-((1r,4S)-4-ethoxycyclohexylamino)-4-((S)-tetrahydrofuran-3-ylamino)pyrimidine-5-carbonitrile]",200 to 800
18,"CC(C)(C)Nc1ncc(C#N)c(N[C@@H]2CCCC[C@H](O)C2)n1 [Example C-38, 2-(tert-butylamino)-4-((1R,3S)-3-hydroxycycloheptylamino) pyrimidine-5-carbonitrile]",< 200

row,Compound,IC50 [nM]
1,"CCO[C@H]1CC[C@H](Nc2ncc(C#N)c(N[C@@H]3CCOC3)n2)CC1 [Example C-39, 2-((1r,4R)-4-ethoxycyclohexylamino)-4-((R)-tetrahydrofuran-3-ylamino)pyrimidine-5-carbonitrile]",1000 to 10000
2,C[C@]1(O)CCC[C@@H](Nc2nc(N[C@H]3CC[C@H](OCC(F)(F)F)CC3)ncc2C#N)C1 [Example C-40],< 200
3,"CCO[C@H]1CC[C@H](Nc2ncc(C#N)c(N[C@@H]3CC[C@@H](C)[C@H](O)C3)n2)CC1 [Example C-41, 2-((1r,4R)-4-ethoxycyclohexylamino)-4-((1R,3R,4R)-3-hydroxy-4-methylcyclohexylamino) pyrimidine-5-carbonitrile]",< 200
4,"CO[C@H]1CC[C@H](Nc2ncc(C#N)c(N[C@@H]3CCCC[C@@H](O)C3)n2)CC1 [Example C-42, 4-((1R,3R)-3-hydroxycycloheptylamino)-2-((1r,4R)-4-methoxycyclohexylamino) pyrimidine-5-carbonitrile]",< 200
5,"CN(C)C(=O)[C@H]1CC[C@H](Nc2ncc(C#N)c(N[C@@H]3CCC[C@](C)(O)C3)n2)CC1 [Example C-43, (1R,4r)-4-(5-cyano-4-((1R,3S)-3-hydroxy-3-methylcyclohexylamino)pyrimidin-2-ylamino)-N,N-dimethylcyclohexanecarboxamide]",< 200
6,"C[C@]1(O)CCC[C@@H](Nc2nc(N[C@H]3CC[C@H](OC(F)F)CC3)ncc2C#N)C1 [Example C-44, 2-((1r,4R)-4-(difluoromethoxy)cyclohexylamino)-4-((1R,3S)-3-hydroxy-3-methylcyclohexylamino) pyrimidine-5-carbonitrile]",< 200
7,"CN(C)C(=O)[C@H]1CC[C@H](Nc2ncc(C#N)c(N[C@@H]3CCCC[C@H](O)C3)n2)CC1 [Example C-45, (1R,4r)-4-(5-cyano-4-((1R,3S)-3-hydroxycycloheptylamino)pyrimidin-2-ylamino)-N,N-dimethylcyclohexanecarboxamide]",< 200
8,"CO[C@H]1CC[C@H](Nc2ncc(C#N)c(N[C@@H]3CC[C@@H](C)C(O)C3)n2)CC1 (stereo partly drawn) [Example C-46, 4-((1R,3R,4R)-3-hydroxy-4-methylcyclohexylamino)-2-((1r,4R)-4-methoxycyclohexylamino) pyrimidine-5-carbonitrile]",< 200
9,"C[C@@H]1CC[C@@H](Nc2nc(N[C@H]3CC[C@H](C(=O)N(C)C)CC3)ncc2C#N)C[C@H]1O [Example C-47, (1R,4r)-4-(5-cyano-4-((1R,3R,4R)-3-hydroxy-4-methylcyclohexylamino)pyrimidin-2-ylamino)-N,N-dimethylcyclohexanecarboxamid]",< 200
10,"C[C@@H]1CC[C@@H](Nc2nc(N[C@H]3CC[C@H](O)CC3)ncc2C#N)C[C@H]1O [Example C-48, 4-((1R,3R,4R)-3-hydroxy-4-methylcyclohexylamino)-2-((1r,4R)-4-hydroxycyclohexylamino) pyrimidine-5-carbonitrile]",< 200
11,C[C@@H]1CC[C@@H](Nc2nc(N[C@H]3CC[C@H](OCC(F)(F)F)CC3)ncc2C#N)C[C@H]1O [Example C-49],< 200
12,"CO[C@H]1CC[C@H](Nc2ncc(C#N)c(N[C@@H]3CCCC[C@](C)(O)C3)n2)CC1 [Example C-50, 4-((1R,3S)-3-hydroxy-3-methylcycloheptylamino)-2-((1r,4R)-4-methoxycyclohexylamino) pyrimidine-5-carbonitrile]",200 to 800
13,"CO[C@H]1CC[C@H](Nc2ncc(C#N)c(N[C@H]3CCCC[C@](C)(O)C3)n2)CC1 [Example C-51, 4-((1S,3S)-3-hydroxy-3-methylcycloheptylamino)-2-((1r,4S)-4-methoxycyclohexylamino) pyrimidine-5-carbonitrile]",1000 to 10000
14,"CO[C@H]1CC[C@H](Nc2ncc(C#N)c(N[C@H]3CCCC[C@@](C)(O)C3)n2)CC1 [Example C-52, 4-((1S,3R)-3-hydroxy-3-methylcycloheptylamino)-2-((1r,4S)-4-methoxycyclohexylamino) pyrimidine-5-carbonitrile]",< 200
15,"CO[C@H]1CC[C@H](Nc2ncc(C#N)c(N[C@@H]3CCCC[C@@](C)(O)C3)n2)CC1 [Example C-53, 4-((1R,3R)-3-hydroxy-3-methylcycloheptylamino)-2-((1r,4R)-4-methoxycyclohexylamino) pyrmidine-5-carbonitrile]",< 200
16,"CN(C)C(=O)[C@H]1CC[C@H](Nc2ncc(C#N)c(N[C@@H]3CCCOC3)n2)CC1 [Example C-54, (1R,4r)-4-(5-cyano-4-((R)-tetrahydro-2H-pyran-3-ylamino)pyrimidin-2-ylamino)-N,N-dimethylcyclohexanecarboxamide]",200 to 800
17,"CC(C)CNc1nc(N[C@H]2CC[C@H](O)CC2)ncc1C#N [Example C-55, 2-((1r,4r)-4-hydroxycyclohexylamino)-4-(isobutylamino)pyrimidine-5-carbonitrile]",1000 to 10000
18,"[2H]C([2H])([2H])O[C@H]1CC[C@H](Nc2ncc(C#N)c(N[C@@H]3CCC[C@](C)(O)C3)n2)CC1 [Example C-56, 4-((1R,3S)-3-hydroxy-3-methylcyclohexylamino)-2-((1r,4R)-4-((^2H3)methyloxy)cyclohexyl-amino)pyrimidine-5-carbonitrile]",< 200
